Assay results from patent US10369093B2, “Stable solution of hexamidine salts in alkanediol-water mixtures, with antimicrobial and skin-moisturising effect” (MINASOLVE GERMANY GMBH, priority 2015, dated 2019).

Legend:
[1] = according to EP1477157B1; cited from earlier work
[2] = BASF data sheet Elestab HP100; cited from earlier work
[3] = system: Candida albicans; experiment: Minimum inhibitory concentration, suspension test; assay type: cell-based; conditions: 4 days at 30° C.
Protocol: (§1) Minimal inhibitory concentrations against bacteria, fungi and yeasts were determined by means of a suspension test. For this purpose, nine-stage dilution series of the respective test substances were prepared in 1:1 mixtures of CASO broth and distilled water. For the tests with mushrooms and yeasts in each case 2% dextrose was added. Each microorganism was tested separately in a test tube containing 10 ml of said culture medium. To each tube was added 0.1 ml of a suspension containing 5×10^8 colony forming units (CFU) for bacteria and 1×10^7 CFU for fungi and yeasts, respectively. Each tube was incubated for 3 days at 37° C. (bacteria) or for 4 days at 30° C. (fungi and yeasts). The minimum inhibitory concentration was defined as the concentration at which no turbidity or other visible signs of microbial growth were observed after the end of the test period.

[4] = system: Staphylococcus aureus; experiment: Minimum inhibitory concentration, suspension test; assay type: cell-based; conditions: 3 days at 37° C.
Protocol: as §1

[5] = system: Aspergillus brasiliensis; experiment: Minimum inhibitory concentration, suspension test; assay type: cell-based; conditions: 4 days at 30° C.
Protocol: as §1

[6] = system: Pseudomonas aeruginosa; experiment: Minimum inhibitory concentration, suspension test; assay type: cell-based; conditions: 3 days at 37° C.
Protocol: as §1

[7] = system: Escherichia coli; experiment: Minimum inhibitory concentration, suspension test; assay type: cell-based; conditions: 3 days at 37° C.
Protocol: as §1

[8] = system: forearms of healthy volunteers (human skin); experiment: Corneometry test for moisturizing effect; assay type: in vivo; conditions: 3% in H2O
Protocol: To test the moisturizing effect of various substances and mixtures, the test substances were diluted with distilled water to a concentration of 2-3%. The diluted solutions were applied to the forearms of healthy volunteers (number: 12, age: 19-64 years). Before and after the simple application, the skin moisture of the treated skin areas was measured instrumentally with the aid of a Corneometer CM825, combined with a Cutometer dual MPA 580 from Courage & Khazaka. All measurements were preceded by acclimatization of the subjects in a controlled environment (21° C.±1° C., 45%±10% humidity). The measurement results are given as a percentage change from the initial value after 1 h, 2 h, 4 h, 8 h and 24 h and are summarized in Table 4.

Row | Compound | C log P [1] | compatible pH range [2] | Minimal Inhibitory Concentration (MIC) [3] | Minimal Inhibitory Concentration (MIC) [4] | Minimal Inhibitory Concentration (MIC) [5] | Minimal Inhibitory Concentration (MIC) [6] | Minimal Inhibitory Concentration (MIC) [7] | corneometry, % change compared to T0 after 1 h [8] | corneometry, % change compared to T0 2 h [8] | corneometry, % change compared to T0 4 h [8] | corneometry, % change compared to T0 8 h [8] | corneometry, % change compared to T0 24 h [8]
1 | CCCCC(O)CO (centres unmarked) [1,2-hexanediol] | +0.25 | – | – | – | – | – | – | – | – | – | – | –
2 | N=C(N)c1ccc(OCCCCCCOc2ccc(C(=N)N)cc2)cc1 [hexamidine diisethionate, 2-hydroxyethanesulfonic acid-4,4′-[1,6-hexanediylbis(oxy)]dibenzenecarboximidamide] | – | 3-8 | 0.01% | 0.0025% | 0.0005% | 0.1% | 0.01% | – | – | – | – | –
3 | OCCCCCCCO [1,7-heptanediol] | +0.46 | – | – | – | – | – | – | – | – | – | – | –
4 | CCCC(O)CO (centres unmarked) [1,2-pentanediol] | – | – | 2.5% | 4.0% | 2.5% | 2.5% | 2.5% | +18.8% | +31.6% | +37.7% | +21.6% | +13.1%
5 | OCC(O)CO [glycerin] | – | – | – | – | – | – | – | +34.3% | +40.2% | +39.5% | +29.9% | +17.5%
